Measured values as given in DBAASP.
In brackets after ≈: the same amount, converted by molar mass. Blank lines part the entries; values can stand above or below the compound they belong to.

How the values were obtained:
Experiment in all cases: ≥ marks a high value that may be exact or a test limit, other limits are often not marked, values filed in µg/mL are converted to µM
[1] = test system: Pseudomonas aeruginosa PAO1
[2] = test system: Staphylococcus aureus USA 300
[3] = test system: Escherichia coli ATCC 25922
[4] = test system: Staphylococcus aureus USA 300 LAC
[5] = test system: Klebsiella pneumoniae ATCC 13883
Bacillus cereus C737 = test system: Bacillus cereus C737
Escherichia coli UB1005 = test system: Escherichia coli UB1005
[6] = test system: Streptococcus gordonii ATCC 10558
[7] = test system: Streptococcus sanguinis ATCC 10556
[8] = test system: Streptococcus oralis ATCC 9811
[9] = test system: Pseudomonas aeruginosa ATCC 9027
[10] = test system: Acinetobacter baumannii NR-9667
[11] = test system: Pseudomonas aeruginosa ATCC 15442
[12] = test system: Acinetobacter baumannii ATCC BAA-747
[13] = test system: Pseudomonas aeruginosa 1131
[14] = test system: Acinetobacter baumannii NR-17784
[15] = test system: Pseudomonas aeruginosa ATCC 9721
[16] = test system: Pseudomonas aeruginosa ATCC BAA-1744
[17] = test system: Pseudomonas aeruginosa ATCC 25619
[18] = test system: Pseudomonas aeruginosa 1109
[19] = test system: Acinetobacter baumannii ATCC 19606
[20] = test system: Pseudomonas aeruginosa ATCC 35032
[21] = test system: Acinetobacter baumannii NR-13382
[22] = test system: Acinetobacter baumannii ATCC BAA-1605
[23] = test system: Acinetobacter baumannii NR-13375
[24] = test system: Pseudomonas aeruginosa ATCC 10145
[25] = test system: Pseudomonas aeruginosa 1017
[26] = test system: Pseudomonas aeruginosa 1125
[27] = test system: Pseudomonas aeruginosa ATCC 27853
Escherichia coli K-12 = test system: Escherichia coli K-12
Klebsiella pneumoniae = test system: Klebsiella pneumoniae
[28] = test system: Staphylococcus aureus NCTC 8325-4
[29] = test system: Pseudomonas aeruginosa PA-W1
[30] = test system: Pseudomonas aeruginosa PA-W14
Staphylococcus aureus = test system: Staphylococcus aureus

Compound: CC[C@H](C)[C@H](NC(=O)[C@H](CC(=O)O)NC(=O)[C@H](Cc1ccccc1)NC(=O)[C@H](CC(C)C)NC(=O)CN)C(=O)N[C@H](C(=O)N[C@@H](CCCCN)C(=O)N[C@@H](CCCCN)C(=O)N[C@H](C(=O)N[C@H](C(=O)NCC(=O)N[C@@H](C)C(=O)N[C@@H](CC(C)C)C(N)=O)C(C)C)C(C)C)C(C)C [GLFDIVKKVVGAL]
MIC [1]: > 94.2 µM | MIC (Bacillus cereus C737): ≥ 47.1 µM | MIC [2]: 11.8 µM (≈ 16 µg/mL) | MIC (Escherichia coli UB1005): 23.6 µM (≈ 32 µg/mL)

Compound: CC[C@H](C)[C@H](NC(=O)[C@H](CCC(N)=O)NC(=O)[C@H](CCC(=O)O)NC(=O)[C@H](CCCCN)NC(=O)[C@@H]1CCCN1C(=O)[C@H](CC(C)C)NC(=O)[C@H](CS)NC(=O)[C@H](CO)NC(=O)[C@H](CC(C)C)NC(=O)[C@@H](NC(=O)[C@H](C)NC(=O)[C@H](CS)NC(=O)[C@H](CCCN=C(N)N)NC(=O)CNC(=O)CNC(=O)CNC(=O)CNC(=O)[C@H](Cc1c[nH]c2ccccc12)NC(=O)[C@@H](NC(=O)[C@H](Cc1cnc[nH]1)NC(=O)[C@H](CCSC)NC(=O)CNC(=O)[C@@H]1CCCN1C(=O)[C@H](C)NC(=O)[C@H](CC(=O)O)NC(=O)[C@@H]1CCCN1C(=O)[C@H](CC(C)C)NC(=O)[C@H](CCCCN)NC(=O)[C@@H](N)CCCN=C(N)N)[C@@H](C)O)C(C)C)C(=O)O [RKLPDAPGMHTWGGGGRCAVLSCLPKEQI]
MIC [6]: ≥ 294 µM | MIC [7]: ≥ 227 µM | MIC [8]: ≥ 208 µM

Now from value to compound:

MIC [1]: 12.5 µM (≈ 15.9 µg/mL) | MIC [2]: 12.5 µM (≈ 15.9 µg/mL) | MIC [3]: 25 µM (≈ 31.8 µg/mL) | MIC [4]: 12.5 µM (≈ 15.9 µg/mL) | MIC [5]: 25 µM (≈ 31.8 µg/mL)
Compound: CC[C@H](C)[C@H](NC(=O)[C@H](CCCN=C(N)N)NC(=O)[C@H](CCCN=C(N)N)NC(=O)[C@H](CC(C)C)NC(=O)[C@H](CCCN=C(N)N)NC(=O)[C@H](Cc1c[nH]c2ccccc12)NC(=O)[C@@H](N)Cc1c[nH]c2ccccc12)C(=O)N[C@@H](Cc1c[nH]c2ccccc12)C(N)=O [WWRLRRIW]

MIC [9]: 4 µM (≈ 7.87 µg/mL) | MIC [10]: ≥ 32 µM | MIC [11]: 16 µM (≈ 31.5 µg/mL) | MIC [12]: 8 µM (≈ 15.7 µg/mL) | MIC [13]: 16 µM (≈ 31.5 µg/mL) | MIC [14]: 4 µM (≈ 7.87 µg/mL) | MIC [15]: 16 µM (≈ 31.5 µg/mL) | MIC [16]: 16 µM (≈ 31.5 µg/mL) | MIC [17]: 4 µM (≈ 7.87 µg/mL) | MIC [18]: 8 µM (≈ 15.7 µg/mL) | MIC [19]: 16 µM (≈ 31.5 µg/mL) | MIC [20]: 16 µM (≈ 31.5 µg/mL) | MIC [21]: 16 µM (≈ 31.5 µg/mL) | MIC [22]: 16 µM (≈ 31.5 µg/mL) | MIC [23]: 8 µM (≈ 15.7 µg/mL) | MIC [24]: 16 µM (≈ 31.5 µg/mL) | MIC [25]: ≥ 64 µM | MIC [26]: ≥ 32 µM | MIC [27]: 8 µM (≈ 15.7 µg/mL)
Compound: CC[C@H](C)[C@H](NC(=O)[C@H](CCCN=C(N)N)NC(=O)[C@H](CCCN=C(N)N)NC(=O)[C@H](CC(C)C)NC(=O)[C@@H](N)Cc1c[nH]c2ccccc12)C(=O)N[C@@H](CCCCN)C(=O)N[C@@H](C)C(=O)N[C@@H](Cc1c[nH]c2ccccc12)C(=O)N[C@@H](CC(C)C)C(=O)N[C@@H](CCCN=C(N)N)C(=O)N[C@@H](CCCN=C(N)N)C(=O)N[C@@H](CCCCN)C(=O)N[C@@H](CCCN=C(N)N)C(=O)N[C@@H](CCCCN)C(=O)O [WLRRIKAWLRRKRK]

MIC (Escherichia coli K-12): 15.6 µM (≈ 24.8 µg/mL) | MIC (Klebsiella pneumoniae): 62.5 µM (≈ 99.3 µg/mL) | MIC [28]: 15.6 µM (≈ 24.8 µg/mL) | MIC [29]: 31.3 µM (≈ 49.7 µg/mL) | MIC [1]: 15.6 µM (≈ 24.8 µg/mL) | MIC [30]: ≥ 125 µM | MIC (Staphylococcus aureus): 15.6 µM (≈ 24.8 µg/mL)
Compound: NCCCC[C@H](NC(=O)[C@H](Cc1c[nH]c2ccccc12)NC(=O)[C@H](Cc1c[nH]c2ccccc12)NC(=O)[C@H](CCCCN)NC(=O)[C@H](CCCCN)NC(=O)[C@H](Cc1c[nH]c2ccccc12)NC(=O)[C@H](Cc1c[nH]c2ccccc12)NC(=O)[C@H](CCCCN)NC(=O)[C@H](CCCCN)NC(=O)[C@@H](N)Cc1c[nH]c2ccccc12)C(N)=O [WKKWWKKWWK]
